Source: US7087756B2, “Isoxazolopyridinones” (Novartis AG, priority 2001, dated 2006)

Target: Nurr1 receptor (Homo sapiens, UniProt P43354)
Assay: Transactivation of a Nurr1 responsive reporter gene in a midbrain dopaminergic cell line
Format: cell-based
Details: read-out: EC50 of increase of reporter gene activity
Source text: The activity of the agents of the invention at the Nurr1 receptor can be determined in vitro in cellular assays:
Induction of the biological activity of the Nurr1 receptor by the agents of the invention can be measured by the transactivation of a Nurr1 responsive reporter gene in a midbrain dopaminergic cell line. The assay is based on the transcription promoting effect of Nurr1. The reporter gene can be activated both by Nurr1 monomers and Nurr1/RXR heterodimers. RXR is a frequent heterodimerisation partner of nuclear receptors and it has been shown that Nurr1 can form heterodimers with RXR (Zetterström RH et al. Mol. Endocrinol. 1996; 10:1656–1666).

Sequence of Nurr1 receptor (P43354 whole entry): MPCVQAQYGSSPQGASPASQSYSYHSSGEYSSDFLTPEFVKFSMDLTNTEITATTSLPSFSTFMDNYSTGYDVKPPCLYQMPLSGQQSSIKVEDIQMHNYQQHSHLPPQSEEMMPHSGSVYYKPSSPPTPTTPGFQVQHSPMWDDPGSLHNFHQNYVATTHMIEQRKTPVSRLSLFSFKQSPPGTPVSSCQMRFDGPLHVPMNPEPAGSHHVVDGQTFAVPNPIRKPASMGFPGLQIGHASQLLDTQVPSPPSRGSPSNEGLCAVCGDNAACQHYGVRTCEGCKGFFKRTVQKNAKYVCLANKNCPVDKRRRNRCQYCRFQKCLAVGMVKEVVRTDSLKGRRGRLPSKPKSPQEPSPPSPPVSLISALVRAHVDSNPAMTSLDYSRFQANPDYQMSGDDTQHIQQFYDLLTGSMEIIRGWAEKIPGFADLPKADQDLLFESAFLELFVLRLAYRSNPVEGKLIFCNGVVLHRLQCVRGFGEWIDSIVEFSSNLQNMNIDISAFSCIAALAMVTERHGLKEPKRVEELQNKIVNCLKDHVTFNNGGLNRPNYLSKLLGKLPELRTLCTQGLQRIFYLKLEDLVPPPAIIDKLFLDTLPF

Structure (SMILES) | EC50 [nM]
COCCOCc1ccc(-c2cc3onc(-c4ccccc4)c3c(=O)n2C)cc1 [Example 7, 6-[4-(2-Methoxy-ethoxymethyl)-phenyl]-5-methyl-3-phenyl-5H-isoxazolo[4,5-c]pyridin-4-one] | 40
CN(C)Cc1ccc(-c2cc3onc(-c4ccccc4)c3c(=O)[nH]2)cc1 [Example 11, 6-(4-Dimethylaminomethyl-phenyl)-3-phenyl-5H-isoxazolo[4,5-c]pyridin-4-one] | 70
